This is an account of results in publication PMC7782785, “Outer-membrane-acting peptides and lipid II-targeting antibiotics cooperatively kill Gram-negative pathogens” (Communications Biology, 2021).

Converted amounts (≈) assume the structure as drawn. Where a SMILES comes first, the peptide text is derived from it. Where no end group is shown, it is not given here. [ ]: non-standard residue; d: D form. Bounds are passed on as bounds.

For data set [1] the following is noted: human plasma (EDTA K2), 3.2 mM peptide, 37 °C, 200 rpm, samples at 1, 3, 6 h; read-out halo size in spot-on-lawn against K. pneumoniae LMG 20218; triplicate. Here is the method: For plasma stability, the peptides were lyophilized and resuspended in plasma or PBS (as a control) at a final concentration of 3.2 mM. After that, the peptides were incubated with shaking (200 rpm) during 6 h at 37 °C. At time 1, 3, and 6 h, 10 µL samples were tested against K. pneumoniae LMG 20218 by a spot-on-lawn test. Reduction in the size of the halo was related to the degradation of the peptide. The test was performed in triplicate.

Data set [2] deals with E. coli LMG 15862. The method, then:
(§1) For the synergy test, standard checkerboard broth microdilution assays were conducted to test the synergistic effect of combined antimicrobials using the same condition as before[51],[56]. […] The initial concentration of both peptides was their individual MIC. 50 µL fresh bacterial suspension prepared as above was added to the wells already containing the antimicrobial compound mixture to achieve 100 µL final volume per well.
(§2) The fractional inhibitory concentration (FIC) indices[57] were calculated using the formula FICI = FICa + FICb = MICac/MICa + MICbc/MICb, to determine whether the combination is additive, synergistic or antagonistic[51],[57]. The MICa and MICb is the MIC of compound A or B alone, respectively. MICac is the MIC of compound A in combination with compound B and MICbc is the MIC of compound B when it was combined with compound A. The FIC corresponds to the MIC of a compound in combination with the other compound, divided by the MIC of the compound alone. FICa is FIC of compound A while FICb is FIC of compound B. The FICI was interpreted according to EUCAST[58] as follows: synergistic, FICI ≤ 0.5; additive,0.5 < FICI ≤ 1; indifferent, 1 < FICI < 2; antagonistic, FICI ≥ 2.
(§3) The condition for the tests and the analysis of the plates were performed as described above for the MIC tests.

For data set [3], the system named is A. baumannii LMG 01041. The method, then:
as §1, §2, §3

Data set [4] has as its system E. aerogenes LMG 02094. The method, then: as §1, §2, §3
The subject of data set [5] is K. pneumoniae LMG 20218. As to conditions: LMG 20218. The method, then:
as §1, §2, §3

Data set [6] has as its system P. aeruginosa LMG 6395. The method, then: as §1, §2, §3
For data set [7], the system named is E. coli LMG 15862. As to the kind of experiment: microbe, parasite or virus in culture. Here is the method:
(§4) MIC tests were performed in triplicate by liquid growth inhibition microdilution assays in sterile polypropylene microtiter plates according to the Clinical and Laboratory Standards Institute (CLSI) guideline for bacteria that grow aerobically. Briefly, the indicator strains were first streaked on the appropriate agar plate, and then single colonies were picked and incubated overnight in liquid broth. The final inoculum of bacteria was 5*10^5 CFU/mL prepared in CAMHB (cationic adjusted Mueller–Hinton broth, Sigma-Aldrich) or CAMHB plus 5% of lysed horse blood (TCS Biosciences, Buckingham, UK) in the case of S. pneumoniae. The antimicrobials were 2-fold serially diluted and 50 µL diluted bacterial suspension was added to each well to make the final volume 100 µL. The microtiter plates and the count plates were incubated at 37 °C for 16–20 h without shaking. Growth inhibition was assessed by measuring the OD600 using a microplate reader (Tecan Infinity F200). The lowest concentration of the antimicrobials that inhibits visible growth of the indicator strain is identified as the MIC value.
as §3

The test system of data set [8] is A. baumannii LMG 01041. As to the kind of experiment: microbe, parasite or virus in culture. The method, then: as §4, §3
The subject of data set [9] is E. aerogenes LMG 02094. As to the kind of experiment: microbe, parasite or virus in culture. Here is the method:
as §4, §3

The test system of data set [10] is K. pneumoniae LMG 20218. In words: microbe, parasite or virus in culture. The method, then: as §4, §3
Data set [11] deals with P. aeruginosa LMG 6395. In words: microbe, parasite or virus in culture. Here is the method:
as §4, §3

Data set [12] relates to human red blood cells (hRBCs). As to conditions: cited from earlier work.
Where [13] appears, read: compound alone, CLSI broth microdilution, CAMHB, 5*10^5 CFU/mL, 37 °C, 16–20 h, OD600, triplicate.

With `CC[C@@H](C)[C@@H](NC(=O)[C@@H](CCCCN)NC(=O)[C@@H](CCCCN)NC(=O)[C@@H](Cc1c[nH]c2ccccc12)NC(=O)[C@@H](CC(C)C)NC(=O)[C@H](N)CCCNC(=N)N)C(=O)N[C@H](CCCNC(=N)N)C(=O)N[C@H](CCC(N)=O)C(=O)N[C@@H](C(=O)N[C@@H](C(=O)N[C@H](CCCNC(=N)N)C(N)=O)[C@H](C)CC)C(C)C` [D-11R] (H-[dR][dL][dW][dK][dK][dI][dR][dQ][dV][dI][dR]-NH2), the stability in plasma entry in data set [1] is “completely resistant to degradation in plasma”. For the same compound, the “FICI, peptide + nisin” value with E. coli LMG 15862 [2] worked out at 0.375; in the data set on A. baumannii LMG 01041 [3] it was 0.188; in the data set with E. aerogenes LMG 02094 [4] it was 0.188; with K. pneumoniae LMG 20218 [5], 0.125; in the data set with P. aeruginosa LMG 6395 [6] it was 0.188. In addition, the MIC in the data set with E. coli LMG 15862 [7] (LMG 15862) amounted to 8 µM (≈ 12 µg/mL); with A. baumannii LMG 01041 [8] (LMG 01041) it was 64 µM (≈ 95.7 µg/mL); in the data set on E. aerogenes LMG 02094 [9] (LMG 02094), 32 µM (≈ 47.8 µg/mL); in the data set with K. pneumoniae LMG 20218 [10] (LMG 20218), 32 µM (≈ 47.8 µg/mL); against P. aeruginosa LMG 6395 [11] (LMG 6395), 16 µM (≈ 23.9 µg/mL).
As to AIVQRIKKWLR-NH2 [L-13], the MIC against E. coli LMG 15862 [7] (LMG 15862) is on record as 12 µM; in the data set on A. baumannii LMG 01041 [8] (LMG 01041), 128 µM; in the data set on E. aerogenes LMG 02094 [9] (LMG 02094), 128 µM; against K. pneumoniae LMG 20218 [10] (LMG 20218), 24 µM; against P. aeruginosa LMG 6395 [11] (LMG 6395) it was 16 µM.
As to GIGKHVGKALKGLKGLLKGLGEC [L-7], the MIC is 6 µM with E. coli LMG 15862 [7] (LMG 15862); 2 µM in the data set with A. baumannii LMG 01041 [8] (LMG 01041); 8 µM against E. aerogenes LMG 02094 [9] (LMG 02094); 12 µM against K. pneumoniae LMG 20218 [10] (LMG 20218); 13 µM in the data set with P. aeruginosa LMG 6395 [11] (LMG 6395).
For the compound GNNRPVYIPQPRPPHPRL [L-1], the MIC with E. coli LMG 15862 [7] (LMG 15862) is given as 0.5 µM; in the data set with A. baumannii LMG 01041 [8] (LMG 01041), over 64 µM; against E. aerogenes LMG 02094 [9] (LMG 02094) it was 8 µM; against K. pneumoniae LMG 20218 [10] (LMG 20218) it was 5 µM; against P. aeruginosa LMG 6395 [11] (LMG 6395), over 64 µM.
Consider KIVQRIKKWLR-NH2 [L-12], for which the MIC came to 16 µM in the data set with E. coli LMG 15862 [7] (LMG 15862); 128 µM against A. baumannii LMG 01041 [8] (LMG 01041); 256 µM against E. aerogenes LMG 02094 [9] (LMG 02094); 32 µM in the data set on K. pneumoniae LMG 20218 [10] (LMG 20218); 16 µM in the data set on P. aeruginosa LMG 6395 [11] (LMG 6395).
Consider KRIVQRIKKWLR-NH2 [L-8], for which, in [12], the hemolytic activity result is recorded as “very low hemolytic activity”. Further, the MIC in the data set with E. coli LMG 15862 [7] (LMG 15862) was found to be 4 µM; in the data set on A. baumannii LMG 01041 [8] (LMG 01041), 16 µM; with E. aerogenes LMG 02094 [9] (LMG 02094) it was 32 µM; with K. pneumoniae LMG 20218 [10] (LMG 20218) it was 64 µM; in the data set with P. aeruginosa LMG 6395 [11] (LMG 6395), 16 µM.
With RIKRRIKKWLR-NH2 [L-15], the MIC against E. coli LMG 15862 [7] (LMG 15862) is on record as 24 µM; in the data set on A. baumannii LMG 01041 [8] (LMG 01041) it was over 256 µM; with E. aerogenes LMG 02094 [9] (LMG 02094) it was over 256 µM; against K. pneumoniae LMG 20218 [10] (LMG 20218), over 256 µM; with P. aeruginosa LMG 6395 [11] (LMG 6395), 32 µM.
With RIRKRIKKWLR-NH2 [L-14], the MIC with E. coli LMG 15862 [7] (LMG 15862) is 16 µM; in the data set on A. baumannii LMG 01041 [8] (LMG 01041), over 256 µM; against E. aerogenes LMG 02094 [9] (LMG 02094) it was over 256 µM; in the data set with K. pneumoniae LMG 20218 [10] (LMG 20218) it was over 256 µM; against P. aeruginosa LMG 6395 [11] (LMG 6395), 16 µM.
As for RIVQRIKKWL-NH2 [L-10], the MIC was 32 µM in the data set with E. coli LMG 15862 [7] (LMG 15862); 128 µM with A. baumannii LMG 01041 [8] (LMG 01041); over 256 µM against E. aerogenes LMG 02094 [9] (LMG 02094); 64 µM in the data set with K. pneumoniae LMG 20218 [10] (LMG 20218); 16 µM against P. aeruginosa LMG 6395 [11] (LMG 6395).
Take RIVQRIKKWLR-NH2 [L-11]: the stability in plasma entry in data set [1] is given as “almost completely degraded within the first 3 h”. Also, in the data set on A. baumannii LMG 01041 [3], the “FICI, peptide + nisin” value was determined as 0.063. Also, the MIC in the data set with E. coli LMG 15862 [7] (LMG 15862) is recorded as 12 µM; in the data set with A. baumannii LMG 01041 [8] (LMG 01041), over 64 µM; in the data set on E. aerogenes LMG 02094 [9] (LMG 02094) it was 128 µM; in the data set on K. pneumoniae LMG 20218 [10] (LMG 20218), 32 µM; in the data set with P. aeruginosa LMG 6395 [11] (LMG 6395) it was 16 µM.
With RIVQRIKKWR-NH2 [L-9], the MIC is listed as 256 µM in the data set with E. coli LMG 15862 [7] (LMG 15862); over 256 µM in the data set with A. baumannii LMG 01041 [8] (LMG 01041); over 256 µM against E. aerogenes LMG 02094 [9] (LMG 02094); over 256 µM against K. pneumoniae LMG 20218 [10] (LMG 20218); over 256 µM with P. aeruginosa LMG 6395 [11] (LMG 6395).
Consider RIWVIWRR-NH2 [L-5], for which the MIC with E. coli LMG 15862 [7] (LMG 15862) is on record as 3 µM; with A. baumannii LMG 01041 [8] (LMG 01041), 2 µM; against E. aerogenes LMG 02094 [9] (LMG 02094), 5 µM; against K. pneumoniae LMG 20218 [10] (LMG 20218) it was 6 µM; against P. aeruginosa LMG 6395 [11] (LMG 6395), 3 µM.
For RLLFRKIRRLKR [L-4], the MIC against E. coli LMG 15862 [7] (LMG 15862) is reported as 64 µM; against A. baumannii LMG 01041 [8] (LMG 01041), over 128 µM; against E. aerogenes LMG 02094 [9] (LMG 02094), over 256 µM; with K. pneumoniae LMG 20218 [10] (LMG 20218) it was over 256 µM; against P. aeruginosa LMG 6395 [11] (LMG 6395), over 128 µM.
On to RRLFRRILRWL-NH2 [L-6], for which the “hemolytic activity in previous studies” value in [12] is on record as “rather high hemolytic activity”. The MIC in the data set on E. coli LMG 15862 [7] (setting [13]) came to 2 µM; in the data set with A. baumannii LMG 01041 [8] (setting [13]) it was 2 µM; in the data set with E. aerogenes LMG 02094 [9] (setting [13]), 8 µM; in the data set with K. pneumoniae LMG 20218 [10] (setting [13]), 4 µM; against P. aeruginosa LMG 6395 [11] (setting [13]), 3 µM.
For VDKGSYLPRPTPPRPIYNRN-NH2 [L-3], the MIC in the data set with E. coli LMG 15862 [7] (LMG 15862) was 3 µM; against A. baumannii LMG 01041 [8] (LMG 01041), 8 µM; against E. aerogenes LMG 02094 [9] (LMG 02094), over 32 µM; in the data set with K. pneumoniae LMG 20218 [10] (LMG 20218) it was 16 µM; in the data set on P. aeruginosa LMG 6395 [11] (LMG 6395), 32 µM.
VDKPPYLPRPRPPRRIYNR [L-2]: the MIC with E. coli LMG 15862 [7] (LMG 15862) is 4 µM; with A. baumannii LMG 01041 [8] (LMG 01041), 16 µM; with E. aerogenes LMG 02094 [9] (LMG 02094) it was over 64 µM; with K. pneumoniae LMG 20218 [10] (LMG 20218), 8 µM; in the data set with P. aeruginosa LMG 6395 [11] (LMG 6395), over 64 µM.
